This note sets out measurements from US10981932B2, “Macrocyclic indole derivatives” (Bayer Aktiengesellschaft, priority 2016, dated 2021).

The structures appear in SMILES notation. Read-outs that look alike come from different tables or passages of the source.

One series has as its system OPM2. The series can be described thus: Anti-proliferative effect (CellTiter-Glo, 72 h), OPM2. In kind it is cell-based. To be noted: OPM2 cells, median, read-out: IC50 antiproliferation assay OPM2 [M] (median). An outline of the steps: (§1)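 Cells were treated with compounds for 72 h at 37 °C in a humidified incubator, and viability was measured by CellTiter-Glo luminescence. A parallel day 0 plate, read the same way, gave the time zero baseline.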
(In ATP-based viability assays light output follows the ATP content of the culture.)

Series [1] concerns SUDHL10. The series can be described thus: Induction of caspase-3/7 activity (Caspase-Glo 3/7), SUDHL10. In kind it is cell-based. To be noted: caspase-3/7 induction, SUDHL10 cells, 3 h treatment, median. Summed up: (§2)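 DLBCL cells treated with compounds for 3 h at 37 °C, then caspase-3/7 activity read by Caspase-Glo 3/7 luminescence. Medium-only background subtracted; EC50 fitted with C0 fixed at 1 and top set to the reference compound's maximal induction.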

Another series addresses MCL-1 (Homo sapiens, UniProt Q07820). The series can be described thus: Protein-protein interaction assay MCL-1/Noxa BH3 peptide (MCL-1 assay), TR-FRET. Type of series: binding. The following applies: MBP-MCL-1 / Noxa BH3-derived peptide, median. An outline of the steps:
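TR-FRET, 665/622 nm emission ratio (excitation 330–350 nm), measured MCL-1/Noxa complex formation. 1 nM MBP-MCL-1, 50 mM Tris/HCl pH 7, 0.1% BGG, 2 mM DTT. Incubation 1 h at 22 °C, then overnight at 4 °C. IC50 by 4-parameter regression, normalized to DMSO (0%) and no-MCL-1 (100%) controls.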
For orientation: Time-resolved FRET reads energy transfer from a long-lived donor to a nearby acceptor.

The test system of another series is A2780. The series can be described thus: Anti-proliferative effect (CellTiter-Glo, 72 h), A2780. In kind it is cell-based. The following applies: A2780 cells, median, read-out: IC50 antiproliferation assay A2780 [M] (median). Summed up:
as §1

The subject of series [2] is SUDHL10. The series can be described thus: Anti-proliferative effect (CellTiter-Glo, 72 h), SUDHL10. To be noted: SUDHL10 cells, antiproliferation, 72 h incubation, median, read-out: Antiproli SUDHL10 [M] (median). Type of series: cell-based. An outline of the steps:
as §1

Series [3] concerns SUDHL5. The series can be described thus: Induction of cytotoxicity (CellTiter-Glo, 5 h), SUDHL5.
For series [4], the system named is SUDHL5. The series can be described thus: Induction of caspase-3/7 activity (Caspase-Glo 3/7), SUDHL5. In kind it is cell-based. The following applies: caspase-3/7 induction, SUDHL5 cells, 3 h treatment, median. An outline of the steps: as §2
Series [5] relates to SUDHL5. The series can be described thus: Anti-proliferative effect (CellTiter-Glo, 72 h), SUDHL5. In kind it is cell-based. To be noted: SUDHL5 cells, antiproliferation, 72 h incubation, median, read-out: Antiproli SUDHL5 [M] (median). Summed up: as §1
The test system of series [6] is SUDHL10. The series can be described thus: Induction of cytotoxicity (CellTiter-Glo, 5 h), SUDHL10.
Setting [7] is: read-out: Cytotox SUDHL5 [M] (median), SUDHL5 cells, cytotoxicity induction, CellTiter-Glo, 5 h incubation, median.
Setting [8] is: read-out: Cytotox SUDHL10 [M] (median), SUDHL10 cells, cytotoxicity induction, CellTiter-Glo, 5 h incubation, median.
Setting [9] is: Homo sapiens, SU-DHL10, 5 h, read-out: Cytotox SUDHL10 [M] (median), SUDHL10 cells, cytotoxicity induction, CellTiter-Glo, 5 h incubation, median.
[10] abbreviates: Homo sapiens, SU-DHL-5, 5 h, read-out: Cytotox SUDHL5 [M] (median), SUDHL5 cells, cytotoxicity induction, CellTiter-Glo, 5 h incubation, median.

MCL-1, sequence (Q07820 whole entry): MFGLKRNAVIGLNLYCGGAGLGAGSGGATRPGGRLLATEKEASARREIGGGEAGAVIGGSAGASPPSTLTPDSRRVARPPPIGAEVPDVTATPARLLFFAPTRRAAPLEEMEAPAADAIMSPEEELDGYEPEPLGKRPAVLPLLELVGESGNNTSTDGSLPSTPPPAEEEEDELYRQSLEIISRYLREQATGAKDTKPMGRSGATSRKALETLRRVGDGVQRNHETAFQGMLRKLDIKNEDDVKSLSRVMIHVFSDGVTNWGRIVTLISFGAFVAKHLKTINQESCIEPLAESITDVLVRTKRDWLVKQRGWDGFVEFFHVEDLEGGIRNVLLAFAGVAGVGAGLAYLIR

Usually EC50 stands for the concentration giving half of the maximal effect. As to `Cn1nc(COc2ccc(S(C)(=O)=O)cc2)c2c1COCC=CCn1c(C(=O)O)c(CCCOc3cccc4ccccc34)c3cccc-2c31` (single isomer, unassigned) [Example 1-53, (E/Z)-1-methyl-3-{[4-(methylsulfonyl)phenoxy]methyl}-7-[3-(naphthalen-1-yloxy)propyl]-1,10,13,15-tetrahydropyrazolo[4′,3′:9,10][1,6]oxazacycloundecino[8,7,6-hi]indole-8-carboxylic Acid], the IC50 was more than 3.3e-05 M in the series on OPM2; 0.0162 µM against MCL-1; 2.48e-05 M with A2780; 7.2e-06 M in the series on SUDHL10 [2]; 6.49e-06 M in the series with SUDHL5 [3] (setting [7]); 1.36e-05 M in the series on SUDHL5 [5]. For the same molecule, the IC50 in the series on SUDHL10 [6] (setting [8]) is 7.89e-06 M. The EC50 in the series on SUDHL10 [1] worked out at 7.5 µM; in the series with SUDHL5 [4], 10.2 µM.

Regarding `Cn1nc(COc2ccc(S(C)(=O)=O)cc2)c2c1COCCCCn1c(C(=O)O)c(CCCOc3cccc4ccccc34)c3cccc-2c31` (single isomer, unassigned) [Example 1-55, (−)-1-methyl-3-{[4-(methylsulfonyl)phenoxy]methyl}-7-[3-(naphthalen-1-yloxy)propyl]-1,10,11,12,13,15-hexahydropyrazolo[4′,3′:9,10][1,6]oxazacycloundecino[8,7,6-hi]indole-8-carboxylic Acid], the IC50 is more than 3.3e-05 M with OPM2 (Homo sapiens, OPM-2, 72 h); 0.167 µM against MCL-1; 2.59e-05 M in the series on A2780 (Homo sapiens, A2780, 72 h); 9.09e-06 M in the series on SUDHL10 [2]; more than 3.3e-05 M in the series with SUDHL5 [3] (setting [7]); 1.34e-05 M with SUDHL5 [5]. Also, the IC50 in the series on SUDHL10 [6] (setting [9]) worked out at 1.73e-05 M. Besides, the EC50 with SUDHL10 [1] and in the series on SUDHL5 [4] was more than 33 µM throughout.

In the case of `Cn1nc(COc2ccc(S(C)(=O)=O)cc2)c2c1COCCCCn1c(C(=O)O)c(CCCOc3cccc4ccccc34)c3cccc-2c31` (single isomer, unassigned) [Example 1-56, (+)-1-methy-3-{[4-(methylsulfonyl)phenoxy]methyl}-7-[3-(naphthalen-1-yloxy)propyl]-1,10,11,12,13,15-hexahydropyrazolo[4′,3′:9,10][1,6]oxazacycloundecino[8,7,6-hi]indole-8-carboxylic Acid], the IC50 with OPM2 was more than 3.3e-05 M; against MCL-1 it was 0.00684 µM; in the series on A2780, more than 3.3e-05 M; in the series on SUDHL10 [2], more than 3.3e-05 M; in the series with SUDHL5 [3] (setting [7]), 5.72e-06 M; in the series on SUDHL5 [5], more than 3.3e-06 M. The IC50 in the series on SUDHL10 [6] (setting [8]) turned out to be 2.95e-05 M. The concentration for a half-maximal effect (EC50) with SUDHL10 [1] was determined as 7.13 µM; in the series on SUDHL5 [4], 5.7 µM.

Consider `CN1CCCn2c(C(=O)O)c(CCCOc3cccc4ccccc34)c3cccc(c32)-c2c(COc3ccc(C4CCOCC4)cc3)nn(C)c2C1` (single isomer, unassigned) [Example 1-58, (+)-7,9-dimethyl-1-[3-(naphthalen-1-yloxy)propyl]-11-{[4-(tetrahydro-2H-pyran-4-yl)phenoxy]methyl}-4,5,6,7,8,9-hexahydropyrazolo[3′,4′:7,8][1,5]diazecino[9,10,1-hi]indole-2-carboxylic Acid], for which the IC50 in the series on OPM2 (Homo sapiens, OPM-2, 72 h) came out at 2.01e-05 M; on MCL-1, 0.0189 µM; in the series on A2780 (Homo sapiens, A2780, 72 h), 1.31e-05 M; in the series on SUDHL10 [2] (Homo sapiens, SU-DHL10, 72 h), 7.32e-06 M; in the series with SUDHL5 [3] (setting [10]), 1.2e-05 M; in the series on SUDHL5 [5] (Homo sapiens, SU-DHL-5, 72 h) it was 1.17e-05 M. Further, in the series with SUDHL10 [6] (setting [9]), the IC50 was 2.14e-05 M. Besides, the EC50 came out at 17.3 µM in the series with SUDHL10 [1] (Homo sapiens, SU-DHL10, 3 h) and 12.2 µM in the series on SUDHL5 [4] (Homo sapiens, SU-DHL-5, 3 h).

Consider `CN1CCCn2c(C(=O)O)c(CCCOc3cccc4ccccc34)c3cccc(c32)-c2c(COc3ccc(C4CCOCC4)cc3)nn(C)c2C1` (single isomer, unassigned) [Example 1-59, (−)-7,9-dimethyl-1-[3-(naphthalen-1-yloxy)propyl]-11-{[4-(tetrahydro-2H-pyran-4-yl)phenoxy]methyl}-4,5,6,7,8,9-hexahydropyrazolo[3′,4′:7,8][1,5]diazecino[9,10,1-hi]indole-2-carboxylic Acid], for which the IC50 worked out at 1.26e-05 M in the series with OPM2; 0.0938 µM against MCL-1; 1.16e-05 M with A2780; 6.64e-06 M in the series with SUDHL10 [2]; 1.24e-05 M in the series with SUDHL5 [3] (setting [7]); 1.06e-05 M with SUDHL5 [5]. Moreover, in the series on SUDHL10 [6] (setting [8]), the IC50 was 2.01e-05 M. Moreover, the results for the EC50 in the series with SUDHL10 [1] and with SUDHL5 [4] were 15.1 µM and 17.9 µM, respectively.

As for `Cn1nc(COc2ccc(C3=CCOCC3)cc2)c2c1COCCCCn1c(C(=O)O)c(CCCOc3cccc4ccccc34)c3cccc-2c31` (single isomer, unassigned) [Example 1-62, 3-{[4-(3,6-dihydro-2H-pyran-4-yl)phenoxy]methyl}-1-methyl-7-[3-(naphthalen-1-yloxy)propyl]-1,10,11,12,13,15-hexahydropyrazolo[4′,3′:9,10][1,6]oxazacycloundecino[8,7,6-hi]indole-8-carboxylic Acid], the IC50 worked out at 7.6e-06 M in the series with OPM2 (Homo sapiens, OPM-2, 72 h); 0.67 µM against MCL-1; 5.49e-06 M in the series on A2780; 3.36e-06 M in the series with SUDHL10 [2]; 1.2e-05 M in the series on SUDHL5 [3] (setting [10]); 1.02e-05 M in the series with SUDHL5 [5]. Moreover, the IC50 with SUDHL10 [6] (setting [8]) worked out at 1.96e-05 M. Also, the EC50 was determined as 13.1 µM with SUDHL10 [1] (Homo sapiens, SU-DHL10, 3 h) and 14.5 µM in the series on SUDHL5 [4] (Homo sapiens, SU-DHL-5, 3 h).

For the molecule `Cn1nc(COc2ccc(C3=CCOCC3)cc2)c2c1COCCCCn1c(C(=O)O)c(CCCOc3cccc4ccccc34)c3cccc-2c31` (single isomer, unassigned) [Example 1-63, 3-{[4-(3,6-dihydro-2H-pyran-4-yl)phenoxy]methyl}-1-methyl-7-[3-(naphthalen-1-yloxy)propyl]-1,10,11,12,13,15-hexahydropyrazolo[4′,3′:9,10][1,6]oxazacycloundecino[8,7,6-hi]indole-8-carboxylic Acid], the IC50 in the series on OPM2 is 1.18e-05 M; against MCL-1, 0.00864 µM; in the series with A2780, 1.11e-05 M; with SUDHL10 [2], 7.77e-06 M; with SUDHL5 [3] (setting [7]) it was 6.23e-06 M; in the series with SUDHL5 [5], 3.37e-06 M. In addition, the IC50 with SUDHL10 [6] (setting [8]) is 7.04e-06 M. Further, the EC50 is 7.32 µM in the series on SUDHL10 [1] and 7.66 µM with SUDHL5 [4].

Regarding `COC1(c2ccc(OCc3nn(C)c4c3-c3cccc5c(CCCOc6cccc7ccccc67)c(C(=O)O)n(c35)CCCCOC4)cc2)CCOCC1` (single isomer, unassigned) [Example 1-67, 3-{[4-(4-methoxytetrahydro-2H-pyran-4-yl)phenoxy]methyl}-1-methyl-7-[3-(naphthalen-1-yloxy)propyl]-1,10,11,12,13,15-hexahydropyrazolo[4′,3′:9,10][1,6]oxazacycloundecino[8,7,6-hi]indole-8-carboxylic Acid], the IC50 was 1.19e-05 M in the series on OPM2; 0.34 µM against MCL-1; 6.25e-06 M with A2780; 2.95e-06 M in the series on SUDHL10 [2]; 1.22e-05 M in the series on SUDHL5 [3] (setting [7]); 9.8e-06 M with SUDHL5 [5]. In addition, in the series on SUDHL10 [6] (setting [8]), the IC50 is 2.29e-05 M. Moreover, the results for the EC50 in the series with SUDHL10 [1] and in the series with SUDHL5 [4] were 17.8 µM and 16.1 µM, respectively.

`CC(C)OCc1nn(C)c2c1-c1cccc3c(CCCOc4cccc5ccccc45)c(C(=O)O)n(c13)CCCN(C)C2` (single isomer, unassigned) [Example 1-72, 7,9-dimethyl-1-[3-(naphthalen-1-yloxy)propyl]-1-[(propan-2-yloxy)methyl]-4,5,6,7,8,9-hexahydropyrazolo[3′,4′:7,8][1,5]diazecino[9,10,1-hi]indole-2-carboxylic Acid]: the IC50 turned out to be 1.53e-05 M with OPM2; 0.0126 µM on MCL-1; 1.85e-05 M with A2780; 1.37e-05 M in the series with SUDHL10 [2]; 8.53e-06 M with SUDHL5 [3] (setting [7]); 2.38e-05 M with SUDHL5 [5] (Homo sapiens, SU-DHL-5, 72 h). For the same molecule, the IC50 with SUDHL10 [6] (setting [8]) came to 1.98e-05 M. Further, the EC50 in the series with SUDHL10 [1] and with SUDHL5 [4] was more than 33 µM throughout.
